ChEMBL document CHEMBL1759844, “Design, synthesis and antimycobacterial activity of cinnamide derivatives: a molecular hybridization approach” (Bioorg Med Chem Lett, 2011)

Experiments:
[1] = test system: Mycobacterium tuberculosis; assay: Antimicrobial activity against Mycobacterium tuberculosis H37Rv after 48 hrs by resazurin microplate broth microdilution method; assay type: functional
[2] = Selectivity index, ratio of CC50 for african green monkey Vero cells to MIC for Mycobacterium tuberculosis H37Rv; assay type: functional
[3] = Cytotoxicity against african green monkey Vero cells after 72 hrs by MTT assay; assay type: cell-based; details: chlorocebus sabaeus
[4] = test system: Mycobacterium tuberculosis; assay: Antimicrobial activity against Mycobacterium tuberculosis H37Rv after 48 hrs by resazurin microplate broth microdilution method in presence of rifampicin; assay type: functional

SMILES	MIC [1]	Selectivity Index [2]	CC50 at 72 h [3] [µM]	fractional inhibitory concentration index (FICI) [4]
O=C(/C=C/c1ccccc1)N1CCCN(C(=O)/C=C/c2ccccc2)CC1	17.3 µM	41	708	
O=C(/C=C/c1ccccc1)NCCNC(=O)/C=C/c1ccccc1	5.1 µM	121	618	0.31
O=C(/C=C/c1ccccc1)N1CCN(C(=O)/C=C/c2ccccc2)CC1	9 µM	95	855	
O=C(/C=C/c1ccccc1)NCCN1CCN(C(=O)/C=C/c2ccccc2)CC1	16.7 µM	29	480	
Cc1ccc(/C=C/C(=O)NCCNC(=O)/C=C/c2ccc(C)cc2)cc1	144 µM	4	565	
COc1ccc(/C=C/C(=O)NCCNC(=O)/C=C/c2ccc(OC)cc2)cc1	132 µM	5	680	
O=C(/C=C/c1ccc(Cl)cc1)NCCNC(=O)/C=C/c1ccc(Cl)cc1	129 µM	6	788	
O=C(/C=C/c1ccccc1Cl)NCCNC(=O)/C=C/c1ccccc1Cl	64.4 µM	11	725	
O=C(/C=C/c1cccc([N+](=O)[O-])c1)NCCNC(=O)/C=C/c1cccc([N+](=O)[O-])c1	68.5 µM	9	615	
COc1ccccc1/C=C/C(=O)NCCNC(=O)/C=C/c1ccccc1OC	65.8 µM	11	695	
O=C(/C=C/c1c(Cl)cccc1Cl)NCCNC(=O)/C=C/c1c(Cl)cccc1Cl	54.8 µM	12	653	
O=C(/C=C/c1ccco1)NCCNC(=O)/C=C/c1ccco1	10.8 µM	63	683	
O=C(/C=C/c1cccs1)NCCNC(=O)/C=C/c1cccs1	9.41 µM	74	692	
O=C(/C=C/c1ccc(Cl)c(Cl)c1)NCCNC(=O)/C=C/c1ccc(Cl)c(Cl)c1	54.8 µM	12	653	
CC[C@@H](CO)NCCN[C@@H](CC)CO [ETHAMBUTOL]	15.3 µM	96	1470	
CO[C@H]1/C=C/O[C@@]2(C)Oc3c(C)c(O)c4c(O)c(c(/C=N/N5CCN(C)CC5)c(O)c4c3C2=O)NC(=O)/C(C)=C\C=C\[C@H](C)[C@H](O)[C@@H](C)[C@@H](O)[C@@H](C)[C@H](OC(C)=O)[C@@H]1C [RIFAMPIN]	0.125 µg/mL			
